The text below walks through data of patent EP4678629A1, “IONIZABLE LIPID MOLECULE, PREPARATION METHOD THEREFOR AND USE THEREOF” (Maxirna (Shanghai) Pharmaceutical Co., Ltd., priority 2023, dated 2024).

Series [1] is described as follows: Size and polydispersity index (PDI) of the lipid nanoparticle by dynamic light scattering. In kind it is physicochemical. To be noted: LNP encapsulating eGFP mRNA, ionizable lipid/DOPE/cholesterol/DMG-PEG2000 50/10/48.25/1.25 mol%, N/P 12; for Particle size: in nm (unit assumed). The protocol: (§1) The ionizable lipid compound and positive control 1 from Example I were dissolved in ethanol at a molar ratio of 50:10:48.25:1.25 with DOPE, cholesterol, and DMG-PEG2000 (all purchased from A.V.T (Shanghai) Pharmaceutical Co., Ltd.) to prepare an ethanol lipid solution. The enhanced green fluorescent protein (eGFP) mRNA was diluted in 20 mM citrate buffer (pH=6.1) to obtain an mRNA aqueous solution. By using a microfluidic device (Micro&Nano Biologics Co., Ltd., model: INano ™ L) mix ethanol lipid solution and mRNA aqueous solution in a volume ratio of 1:3 to prepare a lipid nanoparticle with a total lipid to mRNA N/P ratio of 12. The medium was replaced by ultrafiltration, ethanol was removed and volumed with DPBS. Finally, the lipid nanoparticle was filtered through a 0.2 µm sterile filter to obtain an LNP preparation encapsulating eGFP mRNA using ionizable lipid/DOPE/cholesterol/DMG-PEG2000 (50/10/48.25/1.25 mol%), with an mRNA content of 0.002 mg/ml-0.5 mg/mL.
(§2) Using Malvern Zetasizer Nano ZS (Malvern UK), the size and polydispersity index (PDI) of the lipid nanoparticle were determined by dynamic light scattering in 173° backscatter detection mode, and the encapsulation efficiency was measured by Ribogreen method.

The nature of series [2]: Encapsulation efficiency of the lipid nanoparticle (eGFP mRNA) by Ribogreen method. In kind it is physicochemical. To be noted: LNP encapsulating eGFP mRNA, ionizable lipid/DOPE/cholesterol/DMG-PEG2000 50/10/48.25/1.25 mol%, N/P 12. The protocol:
as §1, §2

Series [3] is described as follows: In vitro transfection of cells with eGFP-mRNA lipid nanoparticle (LNP preparation), fluorescence imaging and flow cytometry. The settings on record: mouse, dc2.4 cells, 200 ng of mRNA per well, after 24 hours; read-out: Cell viability, %. In kind it is cell-based, mouse. From the text:
(§3) This example used mouse bone marrow-derived dendritic cells DC2.4 (purchased from Millipore) as the validation cell line for a lipid nanoparticle transfection experiment. DC2.4 cells adhered to the wall for growth. All operational steps of cell culture strictly followed the prescribed procedures, using sterile reagents for aseptic operations under a sterile workbench. The main operational steps involved were as follows: • 1) Cell recovery: the preserved cell cryopreservation solution was removed from the -80 °C freezer and immediately placed in a 37 °C water bath for rapid and continuous shaking, allowing it to completely melt within one minute. Fresh culture medium was added to a 15 mL centrifuge tube in advance, and the cell fluid was added to the centrifuge tube in a biosafety cabinet. A centrifuge tube of the same mass was taken, placed symmetrically in the centrifuge, and centrifuged at low speed for 5 minutes at 1200 rpm. After centrifugation, the upper clear liquid was removed, and an appropriate amount of culture medium was slowly added along the tube wall. After the cells were gently blown and dispersed evenly, the cell suspension was drawn and added to the prepared culture bottle. The state and distribution of cells in the early stage of recovery were observed under a microscope. The culture bottle was incubated in a 5% CO2 incubator at 37 °C, and the recovery time was recorded. • 2) Cell passaging: Under a microscope, if the cell density in the field of view reached 80%-90%, cells could be passaged and cultured. Adherent cells required trypsin digestion. In order to avoid residual serum in the culture medium reducing trypsin activity, the original culture medium was removed, and DPBS solution was added to wash once. After suctioning out the DPBS solution, trypsin was added to degrade the protein at the intercellular junction, thereby separating the cells and facilitating further cultivation. The mixture was gently shaken well and placed into the incubator for digestion for 2-3 minutes. After digestion was complete, an appropriate amount of culture medium was immediately added to the original culture dish to terminate digestion. Finally, a pipette was used to carefully blow off the cells and blow them until they were evenly dispersed, and then the cells were inoculated and subcultured in a certain proportion according to experimental requirements.
(§4) Transfection of DC2.4 cells • 1) DC2.4 cell recovery: the frozen DC2.4 cells were taken out from the -80 °C refrigerator and immediately put into a 37 °C water bath for rapid thawing. After melting, they were added to the preheated culture medium, and centrifuged at 1200 rpm for 5 minutes. The supernatant was discarded, and an appropriate amount of DMEM medium containing 10% FBS was added to resuspend the recovered DC2.4 cells, which were placed in a 37 °C, 5% CO2 incubator for activation culture. • 2) According to experimental requirements, DC2.4 cells were transfected into 24 well plates one day in advance. By counting cells, the number and viability of cells were recorded, and a cell suspension with 2 × 10^5 cells per well were taken. Then, a certain volume of DMEM medium containing 10% FBS was added and mixed evenly, wherein 1 mL was added per well for subsequent transfection experiments. • 3) After 24 hours, the culture medium was gently aspirated with a pipette 30 minutes in advance, and each well was washed with 1 mL of DPBS and aspirated. […] The mixture was placed in a 37 °C, 5% CO2 incubator for activation cultivation. • 6) After 24 hours, cell viability (%), eGFP positivity rate (%), and mean fluorescence intensity data were obtained through cell fluorescence imaging and flow cytometry.

For another series, the system named is DC2.4 cells. The series is described as above. Type of series: cell-based, mouse. To be noted: eGFP positivity rate, DC2.4 cells, 200 ng of mRNA per well, after 24 hours.
Description: as §3, §4

`CCCCCC/C=C\COC(=O)CCCCCCCCCN(CCO)CCCN(CCCCCCCCCC(=O)OC/C=C\CCCCCC)CCCCCCCCCC(=O)OC/C=C\CCCCCC` [Example 15, Di((Z)-non-2-en-1-yl)10,10'-((3-((2-hydroxyethyl)(10-(((Z)-non-2-en-1-yl)oxo)-10-oxodecyl)amino)propyl)azanediyl)dicaprate] came in with a PDI in series [1] of 0.20. Besides, the “Encapsulation rate, %” value in series [2] was found to be 90.28%. Besides, in series [3], the viability (as a rule, a per cent measure of how many cells are alive, often set against a control) at 24 h amounted to 84.4%. Further, the “Positive rate, %” value in the series with DC2.4 cells worked out at 91.39%.
In series [1], `CCCCCCCCCCCCCOC(=O)CCCN(CCCO)CCCN(CCCC(=O)OCCCCCCCCCCCCC)CCCC(=O)OCCCCCCCCCCCCC` [Example 63, Ditridecyl 4,4'-((3-((3-hydroxypropyl)(4-oxo-4-(tridecyloxy)butyl)amino)propyl)azanediyl)dibutanoate] showed a PDI of 0.15 and a Particle size of 84.74. For the same molecule, the “Encapsulation rate, %” value in series [2] is listed as 97.68%. Further, in series [3], the viability at 24 h stood at 63.4%. Further, in the series on DC2.4 cells, the “Positive rate, %” value amounted to 92.85%.
For `CCCCCCCCCCCOC(=O)CCCCN(CCCCO)CCCN(CCCCC(=O)OCCCCCCCCCCC)CCCCC(=O)OCCCCCCCCCCC` [Example 43, Diundecyl 5,5'-((3-((4-hydroxybutyl)(5-oxo-5-(undecyloxy)pentyl)amino)propyl)azahexyl)dipentanoate], the PDI in series [1] came to 0.14. Further, the “Encapsulation rate, %” value in series [2] is on record as 87.08%. Also, the viability at 24 h in series [3] came out at 88.2%. In the series with DC2.4 cells, the “Positive rate, %” value was determined as 97.48%.
The matching figures for `CCCCCC/C=C\COC(=O)CCCCCCCN(CCCO)CCCN(CCCCCCCC(=O)OC/C=C\CCCCCC)CCCCCCCC(=O)OC/C=C\CCCCCC` [Example 19, Di((Z)-non-2-en-1-yl)8,8'-((3-((3-hydroxypropyl)(8-(((Z)-non-2-en-1-yl)oxo)-8-oxooctyl)amino)propyl)azanediyl)dioctanoate]: 0.26, 92.54%, 95.6% and 97.44%.
On to `CCCCCCCCCCCCCOC(=O)CCCCCCN(CCCO)CCCN(CCCCCCC(=O)OCCCCCCCCCCCCC)CCCCCCC(=O)OCCCCCCCCCCCCC` [Example 34], for which, in series [1], the PDI is reported as 0.16 and the Particle size is given as 82.74. Besides, in series [2], the “Encapsulation rate, %” value was found to be 99.39%. Further, the viability at 24 h in series [3] is 95%. Besides, the “Positive rate, %” value in the series on DC2.4 cells turned out to be 93.19%.
With `CCCCCCCCCCCCOC(=O)CCCN(CCO)CCCN(CCCC(=O)OCCCCCCCCCCCC)CCCC(=O)OCCCCCCCCCCCC` [Example 94, Dodecyl 4-(22-(2-hydroxyethyl)-14,26-dioxo-18,22-diaza-13,27-dioxanonatriacontane-18-yl)butanoate], the PDI in series [1] is reported as 0.19. The “Encapsulation rate, %” value in series [2] stood at 96.63%. Moreover, in series [3], the viability at 24 h came out at 98.6%. Moreover, the “Positive rate, %” value in the series with DC2.4 cells is listed as 88.07%.
Regarding `CCCCCCCCCCCCCCOC(=O)CCCCCCCN(CCCO)CCCN(CCCCCCCC(=O)OCCCCCCCCCCCCCC)CCCCCCCC(=O)OCCCCCCCCCCCCCC` [Example 60, Ditetradecyl 8,8'-((3-((3-hydroxypropyl)(8-oxo-8-(tetradecyloxy)octyl)amino)propyl)azanediyl)dioctanoate], in series [1], the PDI amounted to 0.10 and the Particle size was 65.40. Moreover, the “Encapsulation rate, %” value in series [2] worked out at 99.46%. The viability at 24 h in series [3] was found to be 72.3%. Besides, the “Positive rate, %” value in the series with DC2.4 cells was determined as 97.14%.
As to `CCCCCCCCCCCOC(=O)CCN(CCCO)CCCN(CCC(=O)OCCCCCCCCCCC)CCC(=O)OCCCCCCCCCCC` [Example 68, Diundecyl 3,3'-((3-((3-hydroxypropyl)(3-oxo-3-(undecyloxy)propyl)amino)propyl)azanediyl)dipropionate], the PDI in series [1] came out at 0.18. The “Encapsulation rate, %” value in series [2] amounted to 95.99%. In addition, the viability at 24 h in series [3] was 94.9%. In addition, the “Positive rate, %” value in the series with DC2.4 cells stood at 98.77%.
The matching figures for `CCCCCCCCCCCCCCCOC(=O)CCCCCCCN(CCO)CCCN(CCCCCCCC(=O)OCCCCCCCCCCCCCCC)CCCCCCCC(=O)OCCCCCCCCCCCCCCC` [Example 22, Dipentadecyl 8,8'-((3-((2-hydroxyethyl)(8-oxo-8-(pentadecyloxy)octyl)amino)propyl)azanediyl)dioctanoate]: 0.11, 78.46%, 95.1% and 98.21%.
With `CCCCCCCCCCCCOC(=O)CCCN(CCCO)CCCCN(CCCC(=O)OCCCCCCCCCCCC)CCCC(=O)OCCCCCCCCCCCC` [Example 103], in series [1], the PDI worked out at 0.14 and the Particle size came out at 94.10. Moreover, in series [2], the “Encapsulation rate, %” value worked out at 94.31%. Besides, in series [3], the viability at 24 h worked out at 95.3%. Also, in the series with DC2.4 cells, the “Positive rate, %” value amounted to 93.80%.
As to `CCCCCCCCCCCCCCOC(=O)CCCCCN(CCCCO)CCCN(CCCCCC(=O)OCCCCCCCCCCCCCC)CCCCCC(=O)OCCCCCCCCCCCCCC` [Example 55, Ditetradecyl 6,6'-((3-((4-hydroxybutyl)(6-oxo-6-(tetradecyloxy)hexyl)amino)propyl)azanediyl)dihexanoate], in series [1], the PDI is given as 0.10 and the Particle size is 71.95. Further, the “Encapsulation rate, %” value in series [2] is given as 98.32%. Besides, the viability at 24 h in series [3] stood at 86.6%. The “Positive rate, %” value with DC2.4 cells is 92.64%.
In series [1], `CCCCCCCCCCCCCCOC(=O)CCCCCN(CCO)CCCN(CCCCCC(=O)OCCCCCCCCCCCCCC)CCCCCC(=O)OCCCCCCCCCCCCCC` [Example 53, Ditetradecyl 6,6'-((3-((2-hydroxyethyl)(6-oxo-6-(tetradecyloxy)hexyl)amino)propyl)azanediyl)dihexanoate] registered a PDI of 0.09 and a Particle size of 91.34. Further, the “Encapsulation rate, %” value in series [2] was found to be 97.67%. In addition, the viability at 24 h in series [3] stood at 68.6%. In addition, the “Positive rate, %” value in the series on DC2.4 cells is given as 86.07%.
`CCCCCCCCCCCOC(=O)CCCN(CCCCO)CCCN(CCCC(=O)OCCCCCCCCCCC)CCCC(=O)OCCCCCCCCCCC` [Example 66, Diundecyl 4,4'-((3-((4-hydroxybutyl)(4-oxo-4-(undecyloxy)butyl)amino)propyl)azanediyl)dibutanoate]: the PDI in series [1] is reported as 0.14. Besides, the “Encapsulation rate, %” value in series [2] is 94.12%. Besides, the viability at 24 h in series [3] was 76.7%. Moreover, the “Positive rate, %” value with DC2.4 cells turned out to be 98.63%.
In series [1], `CCCCCCCCCCCCOC(=O)CCCN(CCCO)CCCN(CCCC(=O)OCCCCCCCCCCCC)CCCC(=O)OCCCCCCCCCCCC` [Example 112, 4,4'-didodecyl((3-((4-(dodecoxy)-4-oxobutyl)(3-hydroxypropyl)amino)propyl)azetidinyl)dibutanoate] registered a PDI of 0.11 and a Particle size of 89.42. Moreover, in series [2], the “Encapsulation rate, %” value amounted to 91.22%. In addition, the viability at 24 h in series [3] was 92.3%. In addition, the “Positive rate, %” value with DC2.4 cells amounted to 95.39%.
